Key:
[1] = Cytotoxicity, CellTiter-Glo luminescent cell viability assay; settings: human (A549) and green monkey (Vero E6)
SARS-CoV-2 3CLP = SARS-CoV-2 3CLP (Severe acute respiratory syndrome coronavirus 2, UniProt P0DTD1); test: SARS-CoV-2 3CLP inhibition, FRET-based cleavage assay; assay type: biochemical; settings: 80 nM SARS-CoV-2 3CLP, 100 μM substrate, 37° C., 10 min incubation, pH 7.8; read-out: 3CL Protease IC50
SARS-CoV-2 = SARS-CoV-2 in vitro plaque reduction assay in Vero E6 cells; assay type: cell-based; settings: Severe acute respiratory syndrome coronavirus 2, Vero C1008, MOI 0.0001 pfu/cell, plaques counted after 48 h, >5 μM = did not reduce plaque numbers by half at 10 μM, read-out: SARS-CoV-2 Antiviral EC50

| SMILES | CC50 at 24 h [1] | IC50 (SARS-CoV-2 3CLP) | EC50 (SARS-CoV-2) |
| --- | --- | --- | --- |
| COc1cccc2[nH]c(C(=O)N[C@@H](CC(C)C)C(=O)N[C@@H](C[C@@H]3CCCNC3=O)C(=O)COC(=O)c3c(Cl)cccc3Cl)cc12 [Compound 5, (3S)-3-{[N-(4-methoxy-1H-indole-2-carbonyl)-L-leucyl]amino}-2-oxo-4-[(3S)-2-oxopiperidin-3-yl]butyl 2,6-dichlorobenzoate] | > 200000 nM | 6.4 nM |  |
| COc1cccc2[nH]c(C(=O)N[C@@H](CC(C)C)C(=O)N[C@@H](C[C@@H]3CCCNC3=O)C(=O)COC(=O)c3c(C(F)(F)F)cccc3C(F)(F)F)cc12 [Compound 6, (3S)-3-{[N-(4-methoxy-1H-indole-2-carbonyl)-L-leucyl]amino}-2-oxo-4-[(3S)-2-oxopiperidin-3-yl]butyl 2,6-bis(trifluoromethyl)benzoate] | > 200000 nM | 1 nM | 210 nM |
| COc1cccc2[nH]c(C(=O)N[C@@H](CC(C)C)C(=O)N[C@@H](C[C@@H]3CCCNC3=O)C(=O)COC(=O)C(C)(C)C(F)(F)F)cc12 [Compound 13, (3S)-3-{[N-(4-methoxy-1H-indole-2-carbonyl)-L-leucyl]amino}-2-oxo-4-[(3S)-2-oxopiperidin-3-yl]butyl 3,3,3-trifluoro-2,2-dimethylpropanoate] | > 200000 nM | 20 nM | > 5000 nM |
| COc1cccc2[nH]c(C(=O)N[C@@H](CC(C)C)C(=O)N[C@@H](C[C@@H]3CCCNC3=O)C(=O)COC(=O)c3c(C(F)(F)F)cc(C)nc3C)cc12 [Compound 18, (3S)-3-{[N-(4-methoxy-1H-indole-2-carbonyl)-L-leucyl]amino}-2-oxo-4-[(3S)-2-oxopiperidin-3-yl]butyl 2,6-dimethyl-4-(trifluoromethyl)pyridine-3-carboxylate] | > 200000 nM | 14 nM | 460 nM |
| COc1cccc2[nH]c(C(=O)N[C@@H](CC(C)C)C(=O)N[C@H](C#N)C[C@@H]3CCCNC3=O)cc12 [Compound 34, N-[(2S)-1-({(1S)-1-cyano-2-[(3S)-2-oxopiperidin-3-yl]ethyl}amino)-4-methyl-1-oxopentan-2-yl]-4-methoxy-1H-indole-2-carboxamide] | > 200000 nM | 13 nM | 2700 nM |
| COc1cc(Cl)cc2[nH]c(C(=O)N[C@@H](CC(C)(C)C)C(=O)N[C@H](C#N)C[C@@H]3CCCNC3=O)cc12 [Compound 35, 6-chloro-N-[(2S)-1-({(1S)-1-cyano-2-[(3S)-2-oxopiperidin-3-yl]ethyl}amino)-4,4-dimethyl-1-oxopentan-2-yl]-4-methoxy-1H-indole-2-carboxamide] | > 200000 nM |  | 1500 nM |
| CC(C)C[C@H](NC(=O)c1cc2c(OC(F)(F)F)cccc2[nH]1)C(=O)N[C@H](C#N)C[C@@H]1CCCNC1=O [Compound 40, N-[(2S)-1-({(1S)-1-cyano-2-[(3S)-2-oxopiperidin-3-yl]ethyl}amino)-4-methyl-1-oxopentan-2-yl]-4-(trifluoromethoxy)-1H-indole-2-carboxamide] | > 50000 nM | 14 nM | 2600 nM |
| CCOc1cccc2[nH]c(C(=O)N[C@@H](CC(C)C)C(=O)N[C@H](C#N)C[C@@H]3CCCNC3=O)cc12 [Compound 69, N-[(2S)-1-({(1S)-1-cyano-2-[(3S)-2-oxopiperidin-3-yl]ethyl}amino)-4-methyl-1-oxopentan-2-yl]-4-ethoxy-1H-indole-2-carboxamide] | > 200000 nM | 24 nM | 4800 nM |
| COc1cccc2[nH]c(C(=O)N[C@@H](CC(C)(C)C)C(=O)N[C@H](C#N)C[C@@H]3CCCNC3=O)cc12 [Compound 70, N-[(2S)-1-({(1S)-1-cyano-2-[(3S)-2-oxopiperidin-3-yl]ethyl}amino)-4,4-dimethyl-1-oxopentan-2-yl]-4-methoxy-1H-indole-2-carboxamide] | > 200000 nM |  | > 5000 nM |
| CC(C)C[C@H](NC(=O)c1cc2c3c(ccc2[nH]1)CCO3)C(=O)N[C@H](C#N)C[C@@H]1CCCNC1=O [Compound 71, N-[(2S)-1-({(1S)-1-cyano-2-[(3S)-2-oxopiperidin-3-yl]ethyl}amino)-4-methyl-1-oxopentan-2-yl]-3,6-dihydro-2H-furo[2,3-e]indole-7-carboxamide] | > 200000 nM | 49 nM | > 5000 nM |
| Cc1cc(C)c(C(=O)OCC(=O)[C@H](C[C@@H]2CCCNC2=O)NC(=O)[C@H](CC(C)C)NC(=O)[C@H]2CCCO2)c(C)n1 [Compound 73, (3S)-2-oxo-3-({N-[(2R)-oxolane-2-carbonyl]-L-leucyl}amino)-4-[(3S)-2-oxopiperidin-3-yl]butyl 2,4,6-trimethylpyridine-3-carboxylate] | > 200000 nM | 190 nM | < 1000 nM |
| CC(C)C[C@H](NC(=O)[C@H]1CCCO1)C(=O)N[C@@H](C[C@@H]1CCNC1=O)C(=O)COC(=O)c1c(C(F)(F)F)cccc1C(F)(F)F [Compound 74, (3S)-2-oxo-3-({N-[(2R)-oxolane-2-carbonyl]-L-leucyl}amino)-4-[(3S)-2-oxopyrrolidin-3-yl]butyl 2,6-bis(trifluoromethyl)benzoate] | > 200000 nM | 110 nM | < 1000 nM |
| COc1nccc2c1cc(C(=O)N[C@@H](CC(C)(C)C)C(=O)N[C@H](C#N)C[C@@H]1CCCNC1=O)n2C [Compound 100, N-[(2S)-1-({(1S)-1-cyano-2-[(3S)-2-oxopiperidin-3-yl]ethyl}amino)-4,4-dimethyl-1-oxopentan-2-yl]-4-methoxy-1-methyl-1H-pyrrolo[3,2-c]pyridine-2-carboxamide] |  | 220 nM | > 5000 nM |
| CC(C)(C)C[C@H](NC(=O)[C@H]1Cc2ccccc2N1C(=O)OCc1ccccc1)C(=O)N[C@H](C#N)C[C@@H]1CCCNC1=O [Compound 101, benzyl (2R)-2-{[(2S)-1-({(1S)-1-cyano-2-[(3S)-2-oxopiperidin-3-yl]ethyl}amino)-4,4-dimethyl-1-oxopentan-2-yl]carbamoyl}-2,3-dihydro-1H-indole-1-carboxylate] |  | 180 nM | > 5000 nM |
| CC(C)(C)C[C@H](NC(=O)[C@H]1Cc2ccccc2N1)C(=O)N[C@H](C#N)C[C@@H]1CCCNC1=O [Compound 102, (2R)—N-[(2S)-1-({(1S)-1-cyano-2-[(3S)-2-oxopiperidin-3-yl]ethyl}amino)-4,4-dimethyl-1-oxopentan-2-yl]-2,3-dihydro-1H-indole-2-carboxamide] |  | 140 nM | > 5000 nM |
| CC(C)C[C@H](NC(=O)[C@@H]1C[C@H]1c1ccccc1)C(=O)N[C@H](C#N)C[C@@H]1CCCNC1=O [Compound 106, N-{(1S)-1-cyano-2-[(3S)-2-oxopiperidin-3-yl]ethyl}-N^2-[(1R,2R)-2-phenylcyclopropane-1-carbonyl]-L-leucinamide] |  | 69 nM | > 5000 nM |
